Earlier results, collected in US10730918B2, “Trap 63” (STRAUMANN HOLDING AG, priority 2013, dated 2020).

Tested on: cementoblasts
Settings: Boabaid et al 2004

Molecule	effect on cell proliferation	number of cementoblasts in cell culture
LRAP: leucine-rich amelogenin polypeptide; SEQ ID NO: 4 identical to sequence in Boabaid et al 2004 (MPLPPHPGHPGYINFSYEVLTPLKWYQNMIRHPSLLPDLPLEAWPATDKTKREEVD; sus scrofa domesticus)	not to have any effect	decreased
full length amelogenin: full length amelogenin, major constituent of the enamel matrix (protein, UniProt Q99217 1-191, looked up, full-length, full length amelogenin, major constituent of the enamel matrix) MGTWILFACLLGAAFAMPLPPHPGHPGYINFSYEVLTPLKWYQSIRPPYPSYGYEPMGGWLHHQIIPVLSQQHPPTHTLQPHHHIPVVPAQQPVIPQQPMMPVPGQHSMTPIQHHQPNLPPPAQQPYQPQPVQPQPHQPMQPQPPVHPMQPLPPQPPLPPMFPMQPLPPMLPDLTLEAWPSTDKTKREEVD	no reported effect	–
